Data as given in patent publication US10091997B2, “Composition for inhibition of insect host sensing” (Vanderbilt University, priority 2010, dated 2018).

Assays:
[1] = target: T1, rat transient receptor potential vanilloid 1 (rTRPV1) (Rattus norvegicus, UniProt O35433); assay: whole-cell patch clamp, HEK cells stably expressing rTRPV1; assay type: cell-based
T1 construct: expressed in transfected cells
Description: To determine the broad-spectrum specificity of VUAA1, the inventors tested VUAA1 on another non-selective cation channel, transient receptor potential vanilloid receptor 1 (TRPV1) (Caterina, 1997; Bohlen, 2010).

[2] = tested on: AgORco-expressing neurons (CpB/C); assay: single sensillum recordings, capitate peg sensilla, CpB/C neurons; assay type: in vivo, Anopheles gambiae; conditions: delivered via glass recording electrode, adult females
Method: (§1) Single sensillum recordings were performed on 4-7 day old, non-bloodfed Anopheles gambiae females maintained on 10% sucrose and a 12/12 light dark cycle. Legs, wings and antennae were removed from cold-anesthetized females that were then restrained on double-stick tape with thread. A glass reference electrode filled with Sensillar lymph ringers (SLR)(Xu, 2005) was placed in the eye and the recording electrode filled with DMSO or VUAA1 diluted in SLR was used to puncture sensilla at their base. Responses were recorded and digitized using a Syntech IDAC-4 and analyzed with AutoSpike software (Syntech). New glass recording pipettes were used for every recording. Data was sampled at 12 kHz.
(§2) The inventors next performed single unit, extracellular electrophysiological recordings on adult female An. gambiae to determine whether VUAA1 could activate AgORco-expressing odorant receptor neurons (ORNs) in vivo. ORNs, which express AgORco and a conventional OR are enclosed within the hair-like sensilla present on olfactory tissues. […] CpA is clearly distinguished from CpB/C by its large action potential amplitude. The action potential amplitudes of CpB and CpC are much smaller and in some preparations indistinguishable from each other; as a result, the spike activity of CpB and CpC neurons were binned for data analysis. […]

[3] = target: T2, AgORco (Anopheles gambiae, UniProt Q7QCC7); assay: whole-cell patch clamp, HEK293 cells stably expressing AgORco alone; assay type: cell-based
T2 construct: expressed in transfected cells
T2 sequence (Q7QCC7 1-478): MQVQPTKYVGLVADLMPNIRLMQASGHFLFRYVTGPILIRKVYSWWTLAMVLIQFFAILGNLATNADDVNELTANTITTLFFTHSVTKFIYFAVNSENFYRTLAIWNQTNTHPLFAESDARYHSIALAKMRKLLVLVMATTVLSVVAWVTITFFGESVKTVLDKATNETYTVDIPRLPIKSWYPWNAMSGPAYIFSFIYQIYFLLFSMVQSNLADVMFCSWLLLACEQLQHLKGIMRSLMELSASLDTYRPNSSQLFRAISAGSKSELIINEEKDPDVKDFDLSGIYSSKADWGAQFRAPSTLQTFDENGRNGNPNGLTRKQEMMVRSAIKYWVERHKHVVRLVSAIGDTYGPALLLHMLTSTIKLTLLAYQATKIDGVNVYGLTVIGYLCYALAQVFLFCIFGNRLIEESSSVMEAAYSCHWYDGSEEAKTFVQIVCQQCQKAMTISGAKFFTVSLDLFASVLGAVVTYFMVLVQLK
Method: (§3) Currents from OR-expressing HEK293 cells were amplified with an Axopatch 200b Amplifier (Axon Instruments) and digitized through a Digidata 1322A (Axon Instruments). Electrophysiological data was recorded and analyzed using pCLAMP 10 (Axon Instruments). Electrodes were fabricated from quartz tubing (Sutter Instruments) and pulled to 4-6 MΩ for whole cell recording. Electrodes were filled with internal solution (120 mM KCl, 30 mM D-glucose, 10 mM HEPES, 2 mM MgCl2, 1.1 mM EGTA, and 0.1 CaCl2 (pH 7.35, 280 mOsm). External (bath) solution contained 130 mM NaCl, 34 mM D-glucose, 10 mM HEPES, 1.5 mM CaCl2, 1.3 mM KH2PO4, and 0.5 MgSO4 (pH 7.35, 300 mOsm). Compounds were diluted in external solution and locally perfused to the recording cell using Perfusion Pencil (Automate Scientific) and controlled by a ValveLink 8.2 controller (Automate Scientific). Whole cell recordings were sampled at 10 kHz and filtered at 5 kHz. Outside-out patches were obtained using 10-15MΩ electrodes pulled from standard glass capillaries (World Precision Instruments) and fire-polished with an MF-830 micro forge (Narishige). Single channel recordings were sampled at 20 kHz. Recordings were reduced to 1 kHz and low-pass filtered at 500 Hz for display and analysis using QuB (SUNY at Buffalo).
(§4) To test the hypothesis that VUAA1 directly agonized AgORco, whole-cell patch clamp responses were examined in AgORco+AgOR10 expressing cells as well HEK293 cells stably expressing AgORco alone. […] The VUAA1-dependent currents in AgORco+AgOR10 cells resembled those resulting from application of benzaldehyde, an orthosteric agonist of AgOR10 (FIG. 3C) (Wang, 2010; Carey, 2010). AgORco+AgOR10 cells were more sensitive to VUAA1 than AgORco cells, producing inward currents at −5.0 log M, a concentration at which AgORco had no response. […] To investigate the specificity of VUAA1 agonism, the inventors transiently transfected HEK cells with the AgORco orthologs of Drosophila melanogaster and Heliothis virescens, DmOR83b and HvOR2 respectively.

[4] = tested on: CpA neuron (CO2 sensitive, does not express AgORco); assay: single sensillum recordings, capitate peg sensilla, CpA neuron; assay type: in vivo, Anopheles gambiae; conditions: CO2 pulse at completion of assay, adult females
Method: as §1, §2

[5] = tested on: An. gambiae larvae; assay: larval behavioral (movement) bioassay, Ethovision; assay type: in vivo, Anopheles gambiae
Method: FIG. 9. VUAA1's larval activity threshold relative to DEET is 5 orders of magnitude lower and AgORco dependent. Larval activity in An. gambiae over 5 minutes monitored in 6-well culture plates using Ethovision (Noldus) software.
In order to address whether VUAA1 as a non-volatile could also evoke behavioral responses from An. gambiae, the inventors tested behavioral responses to VUAA1 on individual larval stage mosquitoes by adaptation of an olfactory based bioassay recently developed at Vanderbilt (described in Liu et al., 2010). These methods are non-invasive, and easily executed using a fully automated setup with an Ethovision® camera/software system (Noldus Information Technology to quantify the overall movement of mosquito larvae in response to uniform concentrations of chemicals. In these assays, increased overall movement can be interpreted as an aversive response (akin to agitation) that are consistent with those evoked by commercially available insect repellents such as DEET.

[6] = tested on: AgORco+AgOR10; assay: whole-cell patch clamp, HEK293 cells expressing AgORco+AgOR10; assay type: cell-based, Anopheles gambiae; conditions: AgORco+AgOR10 cells
Method: as §3, §4

T1 sequence (O35433 whole entry): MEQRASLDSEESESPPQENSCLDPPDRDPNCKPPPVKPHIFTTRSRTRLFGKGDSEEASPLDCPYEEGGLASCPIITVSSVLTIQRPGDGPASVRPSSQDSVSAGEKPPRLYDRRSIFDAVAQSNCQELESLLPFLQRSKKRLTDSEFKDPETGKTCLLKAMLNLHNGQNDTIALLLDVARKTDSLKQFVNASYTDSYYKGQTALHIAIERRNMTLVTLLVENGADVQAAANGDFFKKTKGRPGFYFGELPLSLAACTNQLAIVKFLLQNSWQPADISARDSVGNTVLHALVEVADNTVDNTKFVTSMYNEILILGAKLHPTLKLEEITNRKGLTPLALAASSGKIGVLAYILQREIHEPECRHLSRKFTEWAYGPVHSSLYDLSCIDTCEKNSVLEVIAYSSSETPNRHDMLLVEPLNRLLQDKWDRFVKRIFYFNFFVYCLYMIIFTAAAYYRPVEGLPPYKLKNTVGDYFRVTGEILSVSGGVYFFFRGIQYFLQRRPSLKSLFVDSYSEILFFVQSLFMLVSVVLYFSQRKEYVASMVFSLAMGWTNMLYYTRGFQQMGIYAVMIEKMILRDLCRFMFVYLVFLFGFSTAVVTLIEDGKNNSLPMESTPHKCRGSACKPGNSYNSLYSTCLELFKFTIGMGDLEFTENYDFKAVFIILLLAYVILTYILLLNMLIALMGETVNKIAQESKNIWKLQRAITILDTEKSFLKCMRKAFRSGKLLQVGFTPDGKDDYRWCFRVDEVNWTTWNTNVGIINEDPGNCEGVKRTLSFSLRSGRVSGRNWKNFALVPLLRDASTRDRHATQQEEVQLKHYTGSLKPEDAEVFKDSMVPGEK

## CCc1ccc(NC(=O)CSc2nnc(-c3cccnc3)n2CC)cc1 [VUAA1]
[1]
  whole-cell currents: did not elicit currents
[2]
  spike frequency of CpB/C neurons: increased the spike frequency of CpB/C neurons in a dose-dependent manner
[3]; AgORco alone cells, clamped at −60 mV
  whole-cell currents: concentration-dependent inward currents
[3]; AgORco alone cells, −5.0 log M
  whole-cell response at −5.0 log M: no response
[3]; AgORco alone, mean±s.e.m.
  reversal potential: +0.4±1.1 mV
[4]
  CpA activity: unchanged
[5]; An. gambiae larvae, 5 minutes
  larval behavioral responses (overall movement): robust responses
[5]; larvae treated with AgOrco siRNAs
  larval response after AgORco silencing: no longer respond
[5]; mock or non-specific siRNA control injection
  larval response after mock or non-specific siRNA control injection: retain their high sensitivity
[5]; relative to DEET
  threshold of larval responses lower than DEET: 5 orders of magnitude
[6]; clamped at −60 mV
  whole-cell currents: concentration-dependent inward currents
[6]; whole-cell
  concentration producing inward currents: −5.0 log M
